Test results from patent US20230218716A1, “COMPOSITIONS AND METHODS FOR TREATING ATRIAL FIBRILLATION” (Ohio State Innovation Foudation, priority 2020, published 2023).
Structures can show the parent of a compound that is named as a salt.

Key:
[1] = cited from earlier work
[2] = system: mice; settings: intraperitoneal VEGF 10 or 50 ng/kg; epinephrine 1.5 mg/kg and caffeine 120 mg/kg
Description: In vivo ECG: Continuous ECG recordings (PL3504 PowerLab 4/35, ADInstruments) were obtained from mice anesthetized with isoflurane (1-1.5%) as previously described (Koleske M, et al. The Journal of general physiology. 2018). Briefly, after baseline recording (5 min.), animals received either intraperitoneal VEGF (10 or 50 ng/kg; Sigma) or vehicle (PBS). After an additional 20 min, animals were injected intraperitoneally with epinephrine (1.5 mg/kg; Sigma) and caffeine (120 mg/kg; Sigma) challenge and ECG recording continued for 40 minutes. ECG recordings were analyzed using the LabChart 8 software (ADInstruments).

[3] = system: Langendorff-perfused mouse hearts; settings: VEGF 500 pg/ml, perfused 60 minutes; vehicle 100±9%; n=3 hearts/group
Description: (§1) Langendorff preparations: For optical mapping and ex vivo electrocardiography (ECG) studies, hearts were perfused (at 40-55 mm Hg) in a Langendorff configuration with oxygenated, modified Tyrode's solution (containing, in mM: NaCl 140, KCl 5.4, MgCl2 0.5, dextrose 5.6, HEPES 10; pH adjusted to 7.4) at 37° C. as previously described (Veeraraghavan R, et al. Pflugers Arch. 2015 467:2093-2105; Veeraraghavan R, et al. Elife. 2018 7; Radwanski P B, et al. Cardiovascular research. 2015 106:143-52; Radwanski P B, et al. Heart rhythm. 2010 7:1428-35; Veeraraghavan R and Poelzing S. Cardiovascular research. 2008 77:749-56.

[4] = system: murine atria
Description: Fixation for Transmission Electron Microscopy (TEM): Atria were dissected and fixed overnight in 2% glutaraldehyde at 4° C. for resin embedding and ultramicrotomy as previously described (Veeraraghavan R, et al. Pflugers Arch. 2015 467:2093-2105; Veeraraghavan R, et al. Elife. 2018 7).
Transmission Electron Microscopy (TEM): TEM images of the ID, particularly gap junctions (GJs) and mechanical junctions (MJs), were obtained at 60,000× magnification on a FEI Tecnai G2 Spirit electron microscope. Intermembrane distance at various ID sites was quantified using ImageJ (NIH), as previously described (Veeraraghavan R, et al. Pflugers Arch. 2015 467:2093-2105; Veeraraghavan R, et al. Elife. 2018 7).

[5] = system: murine atria; settings: VEGF-treated vs. control
From the text: (§2) Cryopreservation: Hearts were embedded in optimal cutting temperature compound and frozen using liquid nitrogen for cryosectioning and fluorescent immunolabeling as in previous studies (Veeraraghavan R, et al. Pflugers Arch. 2015 467:2093-2105; Veeraraghavan R, et al. Pflugers Arch. 2016 468:1651-61; Veeraraghavan R, et al. Elife. 2018 7; Veeraraghavan R and Gourdie R. Molecular biology of the cell. 2016 27:3583-3590). These samples were used for light microscopy experiments as described below.
(§3) Fluorescent Immunolabeling: Immuno-fluorescent labeling of cryosections (5 μm thickness) of fresh-frozen myocardium was performed, as previously described (Veeraraghavan R, et al. Pflugers Arch. 2015 467:2093-2105; Veeraraghavan R, et al. Elife. 2018 7; Koleske M, et al. The Journal of general physiology. 2018; Radwanski P B, et al. JACC: Basic to Translational Science. 2016 1:251-266). Briefly, cryosections were fixed with paraformaldehyde (2%, 5 minutes at room temperature), permeabilized with Triton X-100 (0.2% in PBS for 15 minutes at room temperature) and treated with blocking agent (1% BSA, 0.1% triton in PBS for 2 hours at room temperature) prior to labeling with primary antibodies (overnight at 4° C.). Samples were then washed in PBS (3×5 minutes in PBS at room temperature) prior to labeling with secondary antibodies.
For confocal microscopy, samples were then labeled with goat anti-mouse and goat anti-rabbit secondary antibodies conjugated to Alexa 405, Alexa 488, Alexa 568 and Alexa 647 were used (1:8000; ThermoFisher Scientific, Grand Island, N.Y.). Simultaneous labeling with two rabbit or mouse primary antibodies was accomplished by direct fluorophore conjugation of primary antibodies (Zenon labeling kits, ThermoFisher Scientific, Grand Island, N.Y.). Samples were then washed in PBS (3×5 minutes in PBS at room temperature) and mounted in ProLong Gold (Invitrogen, Rockford, Ill.). For STimulated Emission Depletion (STED) microscopy, samples were prepared similar to confocal microscopy but labeled with Alexa 594 and Atto 647N fluorophores. […]

[6] = system: murine atria; remark: listed apart in the source
From the text: as §2, §3
For confocal microscopy, samples were then labeled with goat anti-mouse and goat anti-rabbit secondary antibodies conjugated to Alexa 405, Alexa 488, Alexa 568 and Alexa 647 were used (1:8000; ThermoFisher Scientific, Grand Island, N.Y.). Simultaneous labeling with two rabbit or mouse primary antibodies was accomplished by direct fluorophore conjugation of primary antibodies (Zenon labeling kits, ThermoFisher Scientific, Grand Island, N.Y.). Samples were then washed in PBS (3×5 minutes in PBS at room temperature) and mounted in ProLong Gold (Invitrogen, Rockford, Ill.). For STimulated Emission Depletion (STED) microscopy, samples were prepared similar to confocal microscopy but labeled with Alexa 594 and Atto 647N fluorophores. For STochastic Optical Reconstruction Microscopy (STORM), samples were labeled with Alexa 647 and Biotium CF 568 fluorophores. STORM samples were then washed in PBS (3×5 minutes in PBS at room temperature) and optically cleared using Scale U2 buffer (48 hours at 4° C.) prior to imaging (Veeraraghavan R, et al. Pflugers Arch. 2016 468:1651-61; Veeraraghavan R, et al. Elife. 2018 7; Veeraraghavan R and Gourdie R. Molecular biology of the cell. 2016 27:3583-3590).
Single Molecule Localization: STORM imaging was performed using a Vutara 352 microscope (Bruker Nano Surfaces, Middleton, Wis.) equipped with biplane 3D detection, and fast sCMOS imaging achieving 20 nm lateral and 50 nm axial resolution, as previously described (Veeraraghavan R, et al. Elife. 2018 7; Veeraraghavan R and Gourdie R. Molecular biology of the cell. 2016 27:3583-3590; Struckman H L, et al. Microsc Microanal. 2020:1-9; Bonilla I M, et al. Sci Rep. 2019 9:10179). Individual fluorophore molecules were localized with a precision of 10 nm. The two-color channels were precisely registered using localized positions of several TetraSpeck Fluorescent Microspheres (ThermoFisher Scientific, Carlsbad, Calif.) scattered throughout the field of view, with the procedure being repeated at the start of each imaging session. Protein clustering and spatial organization were quantitatively assessed from single molecule localization data using STORM-RLA, a machine learning-based cluster analysis approach, as previously described (Veeraraghavan R and Gourdie R. Molecular biology of the cell. 2016 27:3583-3590).

[7] = system: mouse hearts; settings: VEGF high dose (500 pg/ml) vs. untreated controls
From the text: Primary Antibodies: The following primary antibodies were used for Western immunoblotting and fluorescence microscopy studies: connexin43 (Cx43; rabbit polyclonal; Sigma C6219); connexin40 (Cx40; rabbit polyclonal; ThermoFisher Scientific 36-4900); N-cadherin (N-cad; mouse monoclonal; BD Biosciences 610920); cardiac isoform of the voltage-gated sodium channel (Nav1.5; rabbit polyclonal; custom antibody (Veeraraghavan R, et al. Elife. 2018 7)); and the sodium channel β subunit (β1; rabbit polyclonal; custom antibody (Veeraraghavan R, et al. Elife. 2018 7))
Western Immunoblotting: Whole cell lysates of mouse hearts frozen using liquid nitrogen were prepared as previously described (Veeraraghavan R, et al. Elife. 2018 7; Koleske M, et al. The Journal of general physiology. 2018; Struckman H L, et al. Microsc Microanal. 2020:1-9). These were electrophoresed on 4-15% TGX Stain-free gels (BioRad, Hercules, Calif.) before being transferred onto a nitrocellulose membrane. The membranes were probed with primary antibodies against Cx43, Cx40, Nav1.5 and […] as well as mouse monoclonal antibody against GAPDH (loading control; Fitzgerald Industries, Acton, Mass.), followed by goat anti-rabbit and goat anti-mouse HRP-conjugated secondary antibodies (Promega, Madison, Wis.). Signals were detected by chemiluminescence using SuperSignal West Femto Extended Duration Substrate (ThermoFisher Scientific, Grand Island, N.Y.) and imaged using a Chemidoc MP imager (BioRad, Hercules, Calif.).

[8] = system: Langendorff-perfused mouse hearts
Description: as §1
Optical Mapping and Volume-conducted Electrocardiography (ECG): Optical voltage mapping was performed using the voltage sensitive dye, di-4-ANEPPS (15 μM; ThermoFisher Scientific, Grand Island, N.Y.), as previously described (Veeraraghavan R, et al. Pflugers Arch. 2015 467:2093-2105; Veeraraghavan R, et al. Pflugers Arch. 2016 468:1651-61; Veeraraghavan R and Poelzing S. Cardiovascular research. 2008 77:749-56), in order to quantify conduction velocity. Motion was suppressed by adding blebbistatin (10 μM) to the perfusate. Preparations were excited by 510 nm light and fluorescent signals passed through a 610 nm longpass filter (Newport, Irvine, Calif.) and recorded at 1000 frames/sec using a MiCAM Ultima-L CMOS camera (SciMedia, Costa Mesa, Calif.). Activation time was defined as the time of the maximum first derivative of the AP (Girouard S D, et al. J Cardiovasc Electrophysiol. 1996 7:1024-38), and activation times were fitted to a parabolic surface (Bayly P V, et al. IEEE Trans Biomed Eng. 1998 45:563-71). Gradient vectors evaluated along this surface were averaged along the fast axis of propagation (±15°) to quantify CV.

[9] = both low (100 pg/ml) and high (500 pg/ml) doses vs. untreated controls

Molecule: O[C@H](c1cc(C(F)(F)F)nc2c(C(F)(F)F)cccc12)[C@@H]1CCCCN1 (relative stereo) [Mefloquine hydrochloride, (R*,S*)-(±)-alpha-2-piperidinyl-2,8-bis(trifluoromethyl)-4-quinolinemethanol]
- Solubility in ethanol ([1]; ethanol): soluble
- Solubility in water ([1]; water): slightly soluble

Molecule: VEGF
- Atrial arrhythmias in vivo after caffeine and epinephrine challenge [2]: elicited atrial arrhythmias in VEGF-treated mice but not in untreated controls
- Levels of FITC-dextran extravasated relative to vehicle controls [3]: 201±7%
- Intermembrane distance at GJ-adjacent sites [4, 9]: significantly increased
- Intermembrane distance at MJ-adjacent sites [4, 9]: significantly increased
- Dose dependence of ID swelling ([4]; low vs. high dose of VEGF): dose-dependent fashion at GJ-adjacent perinexi but not near MJ
- Nav1.5 enrichment ratio near Cx43 (STED) ([5]; <100 nm from Cx43): significantly decreased
- β1 enrichment ratio near Cx43 (STED) ([5]; <100 nm from Cx43): significantly decreased
- Nav1.5 enrichment ratio at N-cad-rich sites (STED) [5]: trended towards a decrease
- β1 density at N-cad-rich plicate ID sites ([6]; VEGF treated hearts vs. control): without significant changes
- Nav1.5 enrichment ratio at N-cad-rich plicate ID sites ([6]; VEGF treated hearts, control 6.5±0.4): 4.6±0.4
- Nav1.5 enrichment ratio at Cx43-adjacent perinexal sites ([6]; VEGF treated hearts, control 10.5±0.3): 6.9±0.8
- β1 enrichment ratio at Cx43-adjacent perinexal sites ([6]; VEGF treated hearts, control 10.7±1.9): 5.4±0.7
- % of ID-localized Nav1.5 signal at N-cad-rich plicate ID sites ([6]; VEGF treated hearts, control 35±2%): 26±3%
- % of ID-localized Nav1.5 signal at Cx43-adjacent perinexal sites ([6]; VEGF treated hearts, control 59±2%): 32±3%
- % of ID-localized β1 signal at Cx43-adjacent perinexal sites ([6]; VEGF treated hearts, control 69±4%): 49±3%
- Expression level of Cx43 [7]: no significant difference
- Expression level of N-cad [7]: no significant difference
- Expression level of Nav1.5 [7]: no significant difference
- Expression level of β1 [7]: no significant difference
- Expression of Cx40 [7]: slightly elevated
- P wave duration ([8]; 30 minutes of VEGF perfusion (100 and 500 pg/ml) vs. untreated control): significant P-wave prolongation
- Incidence of burst pacing-induced atrial arrhythmias ([8]; VEGF 100 and 500 pg/ml, 30 minutes, 10 s burst pacing at 50, 40, 30 ms): increased the incidence of burst pacing-induced atrial arrhythmias in dose-dependent fashion
- Atrial conduction velocity ([8]; VEGF 100 and 500 pg/ml, 30 minutes, paced at cycle length 100 ms): significantly and dose-dependently decreased
